Experiment [1] has as its target T1, CX3CR1 (Homo sapiens, UniProt P49238).
T1 sequence (P49238 1-355): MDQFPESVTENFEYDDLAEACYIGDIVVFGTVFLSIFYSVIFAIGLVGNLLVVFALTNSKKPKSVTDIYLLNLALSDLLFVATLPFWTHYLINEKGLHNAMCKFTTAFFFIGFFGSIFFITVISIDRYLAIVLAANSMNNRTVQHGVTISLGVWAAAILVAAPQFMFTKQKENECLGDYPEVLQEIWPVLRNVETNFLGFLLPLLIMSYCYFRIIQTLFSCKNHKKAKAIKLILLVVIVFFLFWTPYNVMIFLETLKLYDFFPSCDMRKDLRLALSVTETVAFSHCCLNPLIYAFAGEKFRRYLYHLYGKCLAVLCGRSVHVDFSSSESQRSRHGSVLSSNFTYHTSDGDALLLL
Description: 125I-CX3CL1 kinetic radioligand binding, CHO-hCX3CR1 membranes. The arrangement: host or cells: CHO-K1. How it is done: Incubation times ranged from 2.5 min to 4 h. For the association experiments, the radioligand data were fitted to the following monophasic exponential association equation and the association rate (kon) was calculated using the added amounts of radioligand (L) and dissociation rate (koff) as constants. koff was measured in separate dissociation experiments. The dissociation data were fitted to the monophasic exponential decay equation: where Y0 is the binding (cpm) at time zero, X is the time and NS is the (non-specific) binding at infinite times. […] Multiple compound dissociation data were fitted to the biphasic exponential decay equation: […]

Experiment [2] concerns the target T1, CX3CR1. Description: Equilibrium saturation binding, CHO-hCX3CR1 membranes. More on the design: host or cells: CHO-K1. Particulars: GTPγS added (100 μM). As for the experimental part:
Cells were washed in PBS and lysed with an Ultra-Turrax Homogenizer in 50 mM Tris/HCl (pH 7.4) and 1 mM EDTA with Complete™ protease inhibitor (Roche). […] Protein concentration was determined using the BCA method (Thermo Fisher Scientific). […] The filter plate was washed in ice-cold 25 mM HEPES (pH 7.4), 5 mM MgCl2, 1 mM CaCl2 and 500 mM NaCl and dried at 50°C for 1 h. Scintillation cocktail, Optiphase Supermix (PerkinElmer) was added to each well and the radioactivity was measured using a MicroBeta Trilux reader (PerkinElmer). […] The DMSO concentration was held constant at 1%. where Kd is the radioligand dissociation constant. Saturation binding isotherms were analysed by non-linear regression and globally fitted to a hyperbolic one-site binding model taking into account both NSB and total binding to calculate the total receptor number (Bmax) and radioligand dissociation constant (Kd): […] NSB=NS·X+Background, where NS is the concentration-dependent NSB. To visualize the manner of binding of CX3CL1 and AZD8797, a diagnostic affinity ratio plot designed to compare strictly competitive behaviour with allosteric interactions was used. […] For single site competitive interactions, the resulting linear plot has the slope of 1.0. For allosteric but competitive interactions, the slope will start at 1.0 but progressively deviate from unity, eventually reaching a limit governed by the allosteric ternary complex model co-operativity factor α [21, 22].

The target of experiment [3] is T2, CX3CR1 (Homo sapiens, UniProt P49238).
T2 chain: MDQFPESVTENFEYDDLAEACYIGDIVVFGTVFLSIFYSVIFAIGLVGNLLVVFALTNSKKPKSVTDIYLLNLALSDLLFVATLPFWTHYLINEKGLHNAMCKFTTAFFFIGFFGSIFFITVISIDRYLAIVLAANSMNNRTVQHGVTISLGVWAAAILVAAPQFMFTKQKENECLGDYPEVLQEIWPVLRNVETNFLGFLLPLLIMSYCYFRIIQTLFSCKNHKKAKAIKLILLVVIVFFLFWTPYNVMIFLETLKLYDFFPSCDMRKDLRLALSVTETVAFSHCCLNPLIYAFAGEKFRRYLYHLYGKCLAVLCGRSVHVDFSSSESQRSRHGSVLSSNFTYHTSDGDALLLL
Description: 125I-CX3CL1 saturation radioligand binding (CHO-hCX3CR1 membranes).

Experiment [4] addresses T2, CX3CR1. The experiment can be described thus: 125I-CX3CL1 competition radioligand binding (CHO-hCX3CR1 membranes).
The mark [5] stands for this setting: co-adding 100 μM GTPγS + 100 nM CX3CL1, two-phase model, n=2.

For the molecule `Nc1nc2c(ncn2[C@@H]2O[C@H](COP(=O)(O)OP(=O)(O)OP(O)(O)=S)[C@@H](O)[C@H]2O)c(=O)[nH]1` [GTPγS, guanosine 5′-[γ-thio]triphosphate, reference compound], at CX3CR1 [1] (setting [5]), the “k1off of 125I-CX3CL1 dissociation” value came to 0.55 min⁻¹ and the “k2off of 125I-CX3CL1 dissociation” value stood at 0.0084 min⁻¹. In addition, on CX3CR1 [1] (results not shown), the “Effect on 125I-CX3CL1 association rate (kon)” value is “no effect” and the “Effect on maximal binding of 125I-CX3CL1 in association experiments” value is “no effect”. Further, the “Effect on [3H]AZD8797 and 125I-CX3CL1 equilibrium saturation binding” value at CX3CR1 [2] is listed as “no effect”.

B1: CX3CL1 (fractalkine) chemokine domain (protein)
chain: LAGQHHGVTKCNITCSKMTSKIPVALLIHYQQNQASCGKRAIILETRQHRLFCADPKEQWVKDAMQHLDRQAAALTRNGGTF
modifications: 125I-labelled CX3CL1
As for B1, the Kd with CX3CR1 [3] worked out at 0.19 nM.

B2: CX3CL1 (fractalkine) chemokine domain (protein)
chain: LAGQHHGVTKCNITCSKMTSKIPVALLIHYQQNQASCGKRAIILETRQHRLFCADPKEQWVKDAMQHLDRQAAALTRNGGTF
B2: the affinity with CX3CR1 [4] corresponds to a Ki of 0.29 nM.
